Each block holds one compound with its values, some of them ahead of it. Activity calls are given as the source filed them.
What was measured:
Format in all cases: functional
Aurora kinase A = Aurora kinase A (Homo sapiens, UniProt O14965);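 also: value from the Navigating the Kinome kinase panel profiling, panel entry STK6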
[1] = target: Vascular endothelial growth factor receptor 2 (Homo sapiens, UniProt P35968)
Aurora kinase B = Aurora kinase B (Homo sapiens, UniProt Q96GD4)
[2] = target: Serine/threonine-protein kinase pim-1 (Homo sapiens, UniProt P11309)
[3] = target: Cell division cycle 7-related protein kinase (Homo sapiens, UniProt O00311);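 also: value obtained from a kinome-wide kinase panel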
[4] = target: Homeodomain-interacting protein kinase 2 (Homo sapiens, UniProt Q9H2X6);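 also: measured within a kinome-wide kinase profiling panel, HIPK2 being one panel member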
[5] = target: Interleukin-1 receptor-associated kinase 4 (Homo sapiens, UniProt Q9NWZ3)
[6] = target: T1, Glycogen synthase kinase-3 beta (Homo sapiens, UniProt P49841);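 also: value comes from a broad kinome profiling panel, with GSK3B as the panel member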
[7] = target: cAMP-dependent protein kinase catalytic subunit alpha (Homo sapiens, UniProt P17612)
[8] = target: Dual specificity protein kinase CLK4 (Homo sapiens, UniProt Q9HAZ1)
[9] = target: Mitogen-activated protein kinase kinase kinase kinase 4 (Homo sapiens, UniProt O95819)
[10] = target: DNA dC->dU-editing enzyme APOBEC-3A (Homo sapiens, UniProt P31941); assay: A3A deaminase inhibition for selectivity – biochemical, dose response (AID 504722)
[11] = target: DNA dC->dU-editing enzyme APOBEC-3G (Homo sapiens, UniProt Q9HC16); assay: Dose Response confirmation of small molecule APOBEC3G DNA Deaminase Inhibitors via a fluorescence-based single-stranded DNA deaminase assay. [Related pubchem assays (depositor defined):AID493012, AID493028]
[12] = target: T1, Glycogen synthase kinase-3 beta; assay: inhibition of human GSK3B activity – biochemical, microfluidics, dry powder samples, set 2, dose response (AID 623989)
[13] = target: Glycogen synthase kinase-3 alpha (Homo sapiens, UniProt P49840); assay: GSK3A enzyme blockers, homolog specificity check – biochemical, microfluidics, dry powder samples, set 2, selectivity assay for GSK3beta inhibitor project, dose response (AID 623978)
[14] = target: Cyclin-dependent kinase 5/CDK5 activator 1 (Homo sapiens, UniProt Q00535); assay: inhibitors of human CDK5 activity – biochemical, microfluidic mobility shift, dry powder, set 2, selectivity assay for GSK3beta inhibitor project, dose response (AID 623979)
SRSF protein kinase 1 = SRSF protein kinase 1 (Homo sapiens, UniProt Q96SB4);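 also: measured as one member of a kinome-wide kinase profiling panel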
[15] = target: Cyclin-dependent kinase 5 (Homo sapiens, UniProt Q00535);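 also: CDK5 measured as one member of a kinase profiling panel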
[16] = target: Cyclin-dependent kinase 1 (Homo sapiens, UniProt P06493);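 also: Kinome-wide panel profiling, with the target listed as panel member CDC2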
[17] = target: Serine/threonine-protein kinase MRCK alpha (Homo sapiens, UniProt Q5VT25)
[18] = target: Melanin-concentrating hormone receptor 1 (Homo sapiens, UniProt Q99705); assay: Late-stage fluorescence-based counterscreen for antagonists of the G-protein coupled receptor 7 (GPR7): cell-based dose response assay to identify antagonists of the melanin-concentrating hormone receptor 1 (MCHR1) Set 6.
[19] = target: T2, Neuropeptides B/W receptor type 1 (Homo sapiens, UniProt P48145); assay: human NPBW1 receptor blockade, IC50 – cell-based, fluorescence, dose response, set 6, late-stage follow-up (AID 588583)
T2 sequence (P48145 whole entry): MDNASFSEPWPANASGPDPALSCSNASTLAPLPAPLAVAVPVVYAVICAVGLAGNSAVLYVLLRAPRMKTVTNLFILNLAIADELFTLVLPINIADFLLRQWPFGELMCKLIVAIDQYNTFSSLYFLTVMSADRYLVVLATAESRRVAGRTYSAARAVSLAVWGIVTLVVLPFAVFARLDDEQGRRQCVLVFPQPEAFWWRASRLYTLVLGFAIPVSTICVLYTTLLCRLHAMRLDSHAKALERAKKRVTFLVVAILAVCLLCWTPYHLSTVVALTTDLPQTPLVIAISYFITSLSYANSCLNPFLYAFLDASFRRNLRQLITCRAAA

T1 sequence (P49841 whole entry): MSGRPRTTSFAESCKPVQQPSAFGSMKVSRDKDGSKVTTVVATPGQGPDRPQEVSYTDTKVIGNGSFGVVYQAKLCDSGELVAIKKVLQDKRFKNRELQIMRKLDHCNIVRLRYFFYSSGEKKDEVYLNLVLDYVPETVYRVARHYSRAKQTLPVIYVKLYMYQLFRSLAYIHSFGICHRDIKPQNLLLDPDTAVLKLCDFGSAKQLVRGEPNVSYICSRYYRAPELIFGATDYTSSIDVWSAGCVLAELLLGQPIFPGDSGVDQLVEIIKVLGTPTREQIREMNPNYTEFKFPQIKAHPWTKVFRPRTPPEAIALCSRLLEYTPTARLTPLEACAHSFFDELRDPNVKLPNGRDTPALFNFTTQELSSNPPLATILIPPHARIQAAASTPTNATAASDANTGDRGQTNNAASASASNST
Sequence of Interleukin-1 receptor-associated kinase 4 (Q9NWZ3 whole entry): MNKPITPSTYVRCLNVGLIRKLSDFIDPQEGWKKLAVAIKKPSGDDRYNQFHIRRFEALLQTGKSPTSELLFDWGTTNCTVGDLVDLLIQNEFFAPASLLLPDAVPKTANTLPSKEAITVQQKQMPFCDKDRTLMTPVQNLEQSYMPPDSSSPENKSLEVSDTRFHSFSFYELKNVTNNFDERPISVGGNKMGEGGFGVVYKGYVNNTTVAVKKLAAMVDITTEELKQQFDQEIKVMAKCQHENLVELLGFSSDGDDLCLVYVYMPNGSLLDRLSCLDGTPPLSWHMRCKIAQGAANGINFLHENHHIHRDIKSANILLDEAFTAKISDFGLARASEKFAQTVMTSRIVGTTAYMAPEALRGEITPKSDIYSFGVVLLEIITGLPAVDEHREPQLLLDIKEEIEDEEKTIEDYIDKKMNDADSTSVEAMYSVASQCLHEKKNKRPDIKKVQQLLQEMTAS
Sequence of Dual specificity protein kinase CLK4 (Q9HAZ1 whole entry): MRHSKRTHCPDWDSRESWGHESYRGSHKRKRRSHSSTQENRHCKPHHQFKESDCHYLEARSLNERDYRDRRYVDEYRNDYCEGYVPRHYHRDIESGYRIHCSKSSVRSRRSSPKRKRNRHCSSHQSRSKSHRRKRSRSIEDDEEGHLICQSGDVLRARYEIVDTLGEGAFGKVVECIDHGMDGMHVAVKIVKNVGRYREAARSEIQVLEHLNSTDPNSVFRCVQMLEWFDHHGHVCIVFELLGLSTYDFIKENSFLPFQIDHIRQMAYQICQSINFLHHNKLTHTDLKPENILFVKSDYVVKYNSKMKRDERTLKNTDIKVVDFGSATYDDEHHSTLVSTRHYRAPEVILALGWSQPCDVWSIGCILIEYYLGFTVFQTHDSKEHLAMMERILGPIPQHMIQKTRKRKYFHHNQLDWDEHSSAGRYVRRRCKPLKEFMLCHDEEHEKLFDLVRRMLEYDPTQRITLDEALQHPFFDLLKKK
Sequence of DNA dC->dU-editing enzyme APOBEC-3A (P31941 whole entry): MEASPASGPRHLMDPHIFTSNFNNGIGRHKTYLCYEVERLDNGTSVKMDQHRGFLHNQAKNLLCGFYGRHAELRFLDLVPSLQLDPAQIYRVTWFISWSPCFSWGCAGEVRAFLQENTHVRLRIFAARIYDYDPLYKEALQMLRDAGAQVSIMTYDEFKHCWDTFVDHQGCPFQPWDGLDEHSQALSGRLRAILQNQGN
Sequence of Cell division cycle 7-related protein kinase (O00311 whole entry): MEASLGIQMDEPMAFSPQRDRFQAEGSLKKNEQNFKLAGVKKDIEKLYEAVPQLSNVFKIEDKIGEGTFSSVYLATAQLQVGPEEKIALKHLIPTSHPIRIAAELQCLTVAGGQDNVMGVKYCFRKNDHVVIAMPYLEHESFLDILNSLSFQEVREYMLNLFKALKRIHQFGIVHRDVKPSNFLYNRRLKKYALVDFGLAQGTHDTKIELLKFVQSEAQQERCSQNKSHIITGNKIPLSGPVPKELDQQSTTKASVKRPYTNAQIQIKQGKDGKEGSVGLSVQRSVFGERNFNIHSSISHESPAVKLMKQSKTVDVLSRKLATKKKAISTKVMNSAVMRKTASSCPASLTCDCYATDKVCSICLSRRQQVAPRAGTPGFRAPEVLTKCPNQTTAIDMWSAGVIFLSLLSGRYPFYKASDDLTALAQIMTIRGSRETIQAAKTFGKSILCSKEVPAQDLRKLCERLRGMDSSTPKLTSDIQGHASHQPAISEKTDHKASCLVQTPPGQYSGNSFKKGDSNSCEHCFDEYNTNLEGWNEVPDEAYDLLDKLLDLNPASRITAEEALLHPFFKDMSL
Sequence of Mitogen-activated protein kinase kinase kinase kinase 4 (O95819 whole entry): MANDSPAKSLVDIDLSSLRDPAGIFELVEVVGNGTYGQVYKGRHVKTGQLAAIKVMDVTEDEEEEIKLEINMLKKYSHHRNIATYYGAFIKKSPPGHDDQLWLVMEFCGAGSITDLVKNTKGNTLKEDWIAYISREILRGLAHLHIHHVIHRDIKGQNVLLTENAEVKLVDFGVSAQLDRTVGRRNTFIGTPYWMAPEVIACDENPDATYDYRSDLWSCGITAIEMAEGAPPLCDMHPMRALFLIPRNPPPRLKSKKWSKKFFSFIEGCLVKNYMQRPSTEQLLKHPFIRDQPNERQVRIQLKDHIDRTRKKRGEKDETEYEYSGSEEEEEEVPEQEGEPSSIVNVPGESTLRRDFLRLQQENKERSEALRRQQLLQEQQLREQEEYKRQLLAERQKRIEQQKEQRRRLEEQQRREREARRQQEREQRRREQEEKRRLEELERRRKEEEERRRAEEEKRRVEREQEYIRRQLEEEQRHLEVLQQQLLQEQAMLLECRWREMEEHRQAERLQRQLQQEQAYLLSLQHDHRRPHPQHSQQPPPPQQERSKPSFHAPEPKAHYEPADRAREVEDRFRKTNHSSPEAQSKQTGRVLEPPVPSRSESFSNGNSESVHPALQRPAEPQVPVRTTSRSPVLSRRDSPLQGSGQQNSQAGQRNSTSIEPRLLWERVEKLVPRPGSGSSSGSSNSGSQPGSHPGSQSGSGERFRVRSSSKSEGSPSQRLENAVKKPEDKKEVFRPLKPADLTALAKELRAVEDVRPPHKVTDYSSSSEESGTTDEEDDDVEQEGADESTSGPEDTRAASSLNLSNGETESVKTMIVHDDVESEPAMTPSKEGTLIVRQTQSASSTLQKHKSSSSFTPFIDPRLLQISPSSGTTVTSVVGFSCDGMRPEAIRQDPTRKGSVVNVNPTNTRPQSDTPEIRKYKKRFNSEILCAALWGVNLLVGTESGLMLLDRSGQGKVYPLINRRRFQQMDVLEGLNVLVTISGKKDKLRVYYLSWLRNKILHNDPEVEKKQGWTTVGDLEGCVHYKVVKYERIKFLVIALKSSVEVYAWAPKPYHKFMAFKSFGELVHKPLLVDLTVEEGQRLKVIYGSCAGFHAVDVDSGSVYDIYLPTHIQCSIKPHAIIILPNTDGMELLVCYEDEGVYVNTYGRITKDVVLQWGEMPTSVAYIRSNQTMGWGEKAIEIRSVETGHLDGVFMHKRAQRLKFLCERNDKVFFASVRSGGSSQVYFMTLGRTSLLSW
Sequence of Homeodomain-interacting protein kinase 2 (Q9H2X6 whole entry): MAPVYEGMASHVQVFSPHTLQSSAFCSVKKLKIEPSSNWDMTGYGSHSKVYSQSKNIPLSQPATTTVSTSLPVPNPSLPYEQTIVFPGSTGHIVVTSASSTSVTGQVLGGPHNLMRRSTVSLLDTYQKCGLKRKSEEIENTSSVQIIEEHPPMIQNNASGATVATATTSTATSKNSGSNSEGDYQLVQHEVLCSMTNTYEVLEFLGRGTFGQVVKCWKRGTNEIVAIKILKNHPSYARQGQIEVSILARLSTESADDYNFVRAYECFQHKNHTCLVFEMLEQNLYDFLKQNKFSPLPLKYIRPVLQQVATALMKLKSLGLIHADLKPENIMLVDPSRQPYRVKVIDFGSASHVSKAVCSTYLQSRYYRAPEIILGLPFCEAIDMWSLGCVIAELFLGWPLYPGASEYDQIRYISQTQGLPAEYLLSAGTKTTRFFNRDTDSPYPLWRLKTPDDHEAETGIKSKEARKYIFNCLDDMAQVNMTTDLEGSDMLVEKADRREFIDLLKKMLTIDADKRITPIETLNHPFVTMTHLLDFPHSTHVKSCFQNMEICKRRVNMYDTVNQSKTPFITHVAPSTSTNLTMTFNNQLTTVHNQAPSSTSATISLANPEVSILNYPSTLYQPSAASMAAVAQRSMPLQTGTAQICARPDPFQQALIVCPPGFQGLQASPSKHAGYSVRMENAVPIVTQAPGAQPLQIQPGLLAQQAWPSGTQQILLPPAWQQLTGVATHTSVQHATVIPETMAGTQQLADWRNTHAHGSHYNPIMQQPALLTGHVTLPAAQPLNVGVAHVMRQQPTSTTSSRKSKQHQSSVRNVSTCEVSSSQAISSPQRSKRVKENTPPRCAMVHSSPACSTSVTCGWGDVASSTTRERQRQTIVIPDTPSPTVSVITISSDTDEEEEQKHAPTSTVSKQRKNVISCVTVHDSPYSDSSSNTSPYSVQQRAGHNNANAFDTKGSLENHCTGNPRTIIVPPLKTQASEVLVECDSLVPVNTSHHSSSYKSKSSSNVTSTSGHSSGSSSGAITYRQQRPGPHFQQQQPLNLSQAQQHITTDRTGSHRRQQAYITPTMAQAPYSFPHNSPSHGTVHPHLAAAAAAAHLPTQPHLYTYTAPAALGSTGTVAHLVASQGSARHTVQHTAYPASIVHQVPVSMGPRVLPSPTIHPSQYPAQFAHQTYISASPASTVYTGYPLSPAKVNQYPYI
Sequence of Aurora kinase A (O14965 whole entry): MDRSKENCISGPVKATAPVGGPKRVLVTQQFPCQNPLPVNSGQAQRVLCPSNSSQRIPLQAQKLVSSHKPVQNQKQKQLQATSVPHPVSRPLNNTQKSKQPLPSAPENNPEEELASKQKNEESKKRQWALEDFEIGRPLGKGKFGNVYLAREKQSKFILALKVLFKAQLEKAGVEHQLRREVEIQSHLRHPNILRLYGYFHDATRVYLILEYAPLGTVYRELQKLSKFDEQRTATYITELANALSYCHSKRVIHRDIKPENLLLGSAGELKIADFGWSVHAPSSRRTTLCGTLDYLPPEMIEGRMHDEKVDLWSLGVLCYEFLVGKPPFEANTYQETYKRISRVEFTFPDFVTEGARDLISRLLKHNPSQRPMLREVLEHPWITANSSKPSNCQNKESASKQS

Ki (Aurora kinase A): 0.1 µM (active) | Ki [1]: 0.126 µM (active) | Ki (Aurora kinase B): 0.2 µM (active)
Structure (SMILES): CC1(C)CC(C=Cc2ccc(Cl)cc2)=Cc2c1sc1ncnc(N)c21

Ki [2]: 0.794 µM (active) | Ki [3]: 0.0316 µM (active) | Ki [4]: 2 µM (active) | Ki [5]: > 10 µM (inactive) | Ki [6]: 2.51 µM (active) | Ki [7]: 0.794 µM (active) | Ki [8]: 0.01 µM (active) | Ki [9]: 0.0794 µM (active)
Structure (SMILES): CNCCOc1cncc(-c2ccc3[nH]nc(C)c3c2)c1

Structure (SMILES): Cc1ccc(-c2nnc(S)n2/N=C/c2ccncc2)cc1
IC50 [10]: > 100 µM (inactive) | IC50 [11]: 2.48 µM (active) | AC50 [12]: 1.48 µM (active) | AC50 [13]: 7.71 µM (active) | AC50 [14]: 19.3 µM (active)

Ki (SRSF protein kinase 1): 5.01 µM (active) | Ki [15]: 5.01 µM (active) | Ki [5]: 2.51 µM (active) | Ki [16]: 3.98 µM (active) | Ki [17]: 6.31 µM (active)
Structure (SMILES): CN(c1ccccc1-c1ccc2c(c1)Nc1ccccc1NC2=O)S(C)(=O)=O

IC50 [18]: 0.255 µM (active) | IC50 [19]: 0.255 µM (active)
Structure (SMILES): N#CC(c1cc(F)ccc1F)c1c(Cl)cnn(Cc2cccc3ccccc23)c1=O (stereo not drawn)

Reference: ChEMBL document CHEMBL1201862, “PubChem BioAssay data set” (2004)
